Results: ChEMBL document CHEMBL1255235, “Molecular basis for resistance of acanthamoeba tubulins to all major classes of antitubulin compounds” (Antimicrob Agents Chemother, 2008)

What was measured:
Acanthamoeba castellanii = test: Antimicrobial activity against Acanthamoeba castellanii; format: functional, organism-based
Acanthamoeba polyphaga = test: Antimicrobial activity against Acanthamoeba polyphaga; format: functional, organism-based
[1] = Inhibition of tubulin in Acanthamoeba polyphaga by alamar blue assay
[2] = Inhibition of tubulin in rabbit corneal cells by alamar blue assay; format: cell-based; conditions: Oryctolagus cuniculus, Cornea
[3] = Inhibition of tubulin in Acanthamoeba castellanii by alamar blue assay
Leishmania sp. = test: Antimicrobial activity against Leishmania sp.; format: functional, organism-based
Toxoplasma gondii = test: Antimicrobial activity against Toxoplasma gondii; format: functional, organism-based

Row | Compound | IC50 (Acanthamoeba castellanii) [nM] | IC50 (Acanthamoeba polyphaga) [µM] | IC50 [1] [µM] | IC50 [2] [nM] | IC50 [3] [nM] | IC50 (Leishmania sp.) [nM] | IC50 (Toxoplasma gondii) [nM]
1 | N=C(NCCCCCCNC(=N)NC(=N)Nc1ccc(Cl)cc1)NC(=N)Nc1ccc(Cl)cc1 [CHLORHEXIDINE] | 1560 | 3.12 |  |  |  |  | 
2 | COc1cc2c(c(OC)c1OC)-c1ccc(OC)c(=O)cc1[C@@H](NC(C)=O)CC2 [COLCHICINE] |  |  | 2500 | 2400 | 2500 |  | 
3 | CCCN(CCC)c1c([N+](=O)[O-])cc(S(N)(=O)=O)cc1[N+](=O)[O-] [ORYZALIN] |  |  | > 100 | > 500000 | > 100000 |  | 
4 | CC(=O)O[C@H]1C(=O)[C@@]2(C)[C@H]([C@H](OC(=O)c3ccccc3)[C@]3(O)C[C@H](OC(=O)[C@H](O)[C@@H](NC(=O)c4ccccc4)c4ccccc4)C(C)=C1C3(C)C)[C@]1(OC(C)=O)CO[C@@H]1C[C@@H]2O [PACLITAXEL] |  |  | > 10 | 40 | > 10000 | 35 | 1000
5 | CCCSc1ccc2[nH]c(NC(=O)OC)nc2c1 [ALBENDAZOLE] |  |  | > 47 | 700 | > 47000 |  | 
6 | CC[C@]1(O)C[C@@H]2CN(CCc3c([nH]c4ccccc34)[C@@](C(=O)OC)(c3cc4c(cc3OC)N(C)[C@H]3[C@@](O)(C(=O)OC)[C@H](OC(C)=O)[C@]5(CC)C=CCN6CC[C@]43[C@@H]65)C2)C1 [VINBLASTINE] |  |  | 0.68 | 17 | 680 |  | 
